The target in the assay is KRasG12C (M1-K169, biotinylated on the N-terminus) (Homo sapiens (Human), UniProt P01116, G12C). The assay can be described thus: Covalent competition assay: scintillation proximity assay (SPA) quantifying covalent modification of KRASG12C. In kind it is binding. Particulars: competition with radiolabeled covalent probe (Compound B/Compound A), 2 hours incubation, 10 nM KRasG12C. The essentials:
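Test compounds compete with a radiolabeled covalent probe for modification of N-terminally biotinylated KRasG12C(M1-K169):GDP, final 10 nM protein, 25 nM radio-ligand, 475 nM unlabelled ligand, 2 h with agitation in 20 mM Tris-HCl pH 7.5, 150 mM NaCl, 0.1 mM MgCl2, 0.01% Tween-20.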
For orientation: SPA uses beads or plates that emit light when radiolabelled molecules are held near them.
Usually IC50 stands for the concentration needed to halve the response being measured. In the case of `C=CC(=O)N1CC2(CC(n3nc(N4CCN(C(=O)C5CC5)CC4(C)C)c(-c4c(Cl)c(C)cc5[nH]ncc45)c3C)C2)C1` (single isomer, unassigned) [Example 127b, 1-(6-(4-(5-chloro-6-methyl-1H-indazol-4-yl)-3-(4-(cyclopropanecarbonyl)-2,2-dimethylpiperazin-1-yl)-5-methyl-1H-pyrazol-1-yl)-2-azaspiro[3.3]heptan-2-yl)prop-2-en-1-one], the IC50 amounted to 20 nM.
For `C=CC(=O)N1CC2(CC(n3nc(N4CCN(C(=O)C(F)F)CC4(C)C)c(-c4c(Cl)c(C)cc5[nH]ncc45)c3C)C2)C1` (single isomer, unassigned) [Example 128a, 1-(6-(4-(5-chloro-6-methyl-1H-indazol-4-yl)-3-(4-(2,2-difluoroacetyl)-2,2-dimethylpiperazin-1-yl)-5-methyl-1H-pyrazol-1-yl)-2-azaspiro[3.3]heptan-2-yl)prop-2-en-1-one] the value was more than 50000 nM; for `C=CC(=O)N1CC2(CC(n3nc(N4CCN(C(=O)C(F)F)CC4(C)C)c(-c4c(Cl)c(C)cc5[nH]ncc45)c3C)C2)C1` (single isomer, unassigned) [Example 128b, 1-(6-(4-(5-chloro-6-methyl-1H-indazol-4-yl)-3-(4-(2,2-difluoroacetyl)-2,2-dimethylpiperazin-1-yl)-5-methyl-1H-pyrazol-1-yl)-2-azaspiro[3.3]heptan-2-yl)prop-2-en-1-one], 54 nM.
Take `C=CC(=O)N1CC2(CC(n3nc(N4CCN(C(=O)N(C)C)CC4(C)C)c(-c4c(Cl)c(C)cc5[nH]ncc45)c3C)C2)C1` (single isomer, unassigned) [Example 129a, 4-(1-(2-acryloyl-2-azaspiro[3.3]heptan-6-yl)-4-(5-chloro-6-methyl-1H-indazol-4-yl)-5-methyl-1H-pyrazol-3-yl)-N,N,3,3-tetramethylpiperazine-1-carboxamide]: the IC50 was found to be 32 nM.
On to `C=CC(=O)N1CC2(CC(n3nc(N4CCN(C(=O)N(C)C)CC4(C)C)c(-c4c(Cl)c(C)cc5[nH]ncc45)c3C)C2)C1` (single isomer, unassigned) [Example 129b, 4-(1-(2-acryloyl-2-azaspiro[3.3]heptan-6-yl)-4-(5-chloro-6-methyl-1H-indazol-4-yl)-5-methyl-1H-pyrazol-3-yl)-N,N,3,3-tetramethylpiperazine-1-carboxamide], for which the IC50 is 1200 nM.
For `C=CC(=O)N1CC2(CC(n3nc(N4CCN(C5CCOCC5)CC45CCC5)c(-c4c(Cl)c(C)cc5[nH]ncc45)c3C)C2)C1` (single isomer, unassigned) [Example 130a, 1-(6-(4-(5-Chloro-6-methyl-1H-indazol-4-yl)-5-methyl-3-(8-(tetrahydro-2H-pyran-4-yl)-5,8-diazaspiro[3.5]nonan-5-yl)-1H-pyrazol-1-yl)-2-azaspiro[3.3]heptan-2-yl)prop-2-en-1-one] the value was more than 5000 nM.
Next, `C=CC(=O)N1CC2(CC(n3nc(N4CCN(C5CCOCC5)CC45CCC5)c(-c4c(Cl)c(C)cc5[nH]ncc45)c3C)C2)C1` (single isomer, unassigned) [Example 130b, 1-(6-(4-(5-Chloro-6-methyl-1H-indazol-4-yl)-5-methyl-3-(8-(tetrahydro-2H-pyran-4-yl)-5,8-diazaspiro[3.5]nonan-5-yl)-1H-pyrazol-1-yl)-2-azaspiro[3.3]heptan-2-yl)prop-2-en-1-one]: 32 nM.
For `C=CC(=O)N1CC2(CC(n3nc(N4CCN(C(C)C)CC45CCC5)c(-c4c(Cl)c(C)cc5[nH]ncc45)c3C)C2)C1` (single isomer, unassigned) [Example 131a, 1-(6-(4-(5-chloro-6-methyl-1H-indazol-4-yl)-3-(8-isopropyl-5,8-diazaspiro[3.5]nonan-5-yl)-5-methyl-1H-pyrazol-1-yl)-2-azaspiro[3.3]heptan-2-yl)prop-2-en-1-one] the value was more than 5000 nM.
On to `C=CC(=O)N1CC2(CC(n3nc(N4CCN(C(C)C)CC45CCC5)c(-c4c(Cl)c(C)cc5[nH]ncc45)c3C)C2)C1` (single isomer, unassigned) [Example 131b, 1-(6-(4-(5-chloro-6-methyl-1H-indazol-4-yl)-3-(8-isopropyl-5,8-diazaspiro[3.5]nonan-5-yl)-5-methyl-1H-pyrazol-1-yl)-2-azaspiro[3.3]heptan-2-yl)prop-2-en-1-one], for which the IC50 was 76 nM.
Next, `C=CC(=O)N1CC2(CC(n3nc(N4CCN(C5CCOC5)CC45CCC5)c(-c4c(Cl)c(C)cc5[nH]ncc45)c3C)C2)C1` (single isomer, unassigned) [Example 132a, 1-(6-(4-(5-chloro-6-methyl-1H-indazol-4-yl)-5-methyl-3-(8-(tetrahydrofuran-3-yl)-5,8-diazaspiro[3.5]nonan-5-yl)-1H-pyrazol-1-yl)-2-azaspiro[3.3]heptan-2-yl)prop-2-en-1-one]: 697 nM; `C=CC(=O)N1CC2(CC(n3nc(N4CCN(C5CCOC5)CC45CCC5)c(-c4c(Cl)c(C)cc5[nH]ncc45)c3C)C2)C1` (single isomer, unassigned) [Example 132b, 1-(6-(4-(5-chloro-6-methyl-1H-indazol-4-yl)-5-methyl-3-(8-(tetrahydrofuran-3-yl)-5,8-diazaspiro[3.5]nonan-5-yl)-1H-pyrazol-1-yl)-2-azaspiro[3.3]heptan-2-yl)prop-2-en-1-one]: 4500 nM; `C=CC(=O)N1CC2(CC(n3nc(N4CCN(C5CCOC5)CC45CCC5)c(-c4c(Cl)c(C)cc5[nH]ncc45)c3C)C2)C1` (single isomer, unassigned) [Example 132c, 1-(6-(4-(5-chloro-6-methyl-1H-indazol-4-yl)-5-methyl-3-(8-(tetrahydrofuran-3-yl)-5,8-diazaspiro[3.5]nonan-5-yl)-1H-pyrazol-1-yl)-2-azaspiro[3.3]heptan-2-yl)prop-2-en-1-one]: 24 nM.
For `C=CC(=O)N1CC2(CC(n3nc(N4CCN(C5CCOC5)CC45CCC5)c(-c4c(Cl)c(C)cc5[nH]ncc45)c3C)C2)C1` (single isomer, unassigned) [Example 132d, 1-(6-(4-(5-chloro-6-methyl-1H-indazol-4-yl)-5-methyl-3-(8-(tetrahydrofuran-3-yl)-5,8-diazaspiro[3.5]nonan-5-yl)-1H-pyrazol-1-yl)-2-azaspiro[3.3]heptan-2-yl)prop-2-en-1-one] the value was 29 nM; for `C=CC(=O)N1CC2(CC(n3nc(N4CCN(C5COC5)C[C@]4(C)CC)c(-c4c(Cl)c(C)cc5[nH]ncc45)c3C)C2)C1` (single isomer, unassigned) [Example 133a], 1600 nM.
For the compound `C=CC(=O)N1CC2(CC(n3nc(N4CCN(C5COC5)C[C@]4(C)CC)c(-c4c(Cl)c(C)cc5[nH]ncc45)c3C)C2)C1` (single isomer, unassigned) [Example 133b], the IC50 was found to be 5 nM.
For `C=CC(=O)N1CC2(CC(n3nc(N4CCN(C5CCOCC5)CC4(C)C)c(-c4c(Cl)c(C)cc5[nH]ncc45)c3C)C2)C1` (single isomer, unassigned) [Example 134a, 1-(6-(4-(5-chloro-6-methyl-1H-indazol-4-yl)-3-(2,2-dimethyl-4-(tetrahydro-2H-pyran-4-yl)piperazin-1-yl)-5-methyl-1H-pyrazol-1-yl)-2-azaspiro[3.3]heptan-2-yl)prop-2-en-1-one] the value was more than 5000 nM; for `C=CC(=O)N1CC2(CC(n3nc(N4CCN(C5CCOCC5)CC4(C)C)c(-c4c(Cl)c(C)cc5[nH]ncc45)c3C)C2)C1` (single isomer, unassigned) [Example 134b, 1-(6-(4-(5-chloro-6-methyl-1H-indazol-4-yl)-3-(2,2-dimethyl-4-(tetrahydro-2H-pyran-4-yl)piperazin-1-yl)-5-methyl-1H-pyrazol-1-yl)-2-azaspiro[3.3]heptan-2-yl)prop-2-en-1-one], 46 nM.
Next, `C=CC(=O)N1CC2(CC(n3nc(N4CCN(C5CC6(COC6)C5)CC45CCC5)c(-c4c(Cl)c(C)cc5[nH]ncc45)c3C)C2)C1` (single isomer, unassigned) [Example 135a, 1-(6-(3-(8-(2-oxaspiro[3.3]heptan-6-yl)-5,8-diazaspiro[3.5]nonan-5-yl)-4-(5-chloro-6-methyl-1H-indazol-4-yl)-5-methyl-1H-pyrazol-1-yl)-2-azaspiro[3.3]heptan-2-yl)prop-2-en-1-one]: more than 5000 nM; `C=CC(=O)N1CC2(CC(n3nc(N4CCN(C5CC6(COC6)C5)CC45CCC5)c(-c4c(Cl)c(C)cc5[nH]ncc45)c3C)C2)C1` (single isomer, unassigned) [Example 135b, 1-(6-(3-(8-(2-oxaspiro[3.3]heptan-6-yl)-5,8-diazaspiro[3.5]nonan-5-yl)-4-(5-chloro-6-methyl-1H-indazol-4-yl)-5-methyl-1H-pyrazol-1-yl)-2-azaspiro[3.3]heptan-2-yl)prop-2-en-1-one]: 14 nM.
For `C=CC(=O)N1CC2(CC(n3nc(N4CCN(C5COC5)C5COCC54)c(-c4c(Cl)c(C)cc5[nH]ncc45)c3C)C2)C1` (single isomer, unassigned) [Example 136a, 1-(6-(4-(5-chloro-6-methyl-1H-indazol-4-yl)-5-methyl-3-((4aS*,7aS*)-4-(oxetan-3-yl)hexahydrofuro[3,4-b]pyrazin-1(2H)-yl)-1H-pyrazol-1-yl)-2-azaspiro[3.3]heptan-2-yl)prop-2-en-1-one] the value was 846 nM; for `C=CC(=O)N1CC2(CC(n3nc(N4CCN(C5COC5)C5COCC54)c(-c4c(Cl)c(C)cc5[nH]ncc45)c3C)C2)C1` (single isomer, unassigned) [Example 137b, 1-(6-(4-(5-chloro-6-methyl-1H-indazol-4-yl)-5-methyl-3-((4aS*,7aS*)-4-(oxetan-3-yl)hexahydrofuro[3,4-b]pyrazin-1(2H)-yl)-1H-pyrazol-1-yl)-2-azaspiro[3.3]heptan-2-yl)prop-2-en-1-one], 975 nM.
